Counter-ions that a name gives are not always drawn. Like-named read-outs stand apart in the source and are kept apart here.
Key:
[1] = biological target: Ba/F3 ERBB2 A775_G776insYVMA (Homo sapiens, UniProt P04626, DUP772-775, cells depend on it); test: Cell viability assay, Ba/F3 ERBB2 A775_G776insYVMA; assay type: cell-based, mouse; settings: 72 hours, CellTiter Glo
Outline: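 Viability after 72 h compound treatment (37 °C, 5% CO2) was quantified by CellTiter-Glo luminescence of intracellular ATP, with sigmoidal dose-response fitting. Cells were retrovirally engineered Ba/F3 lines whose growth depends on the mutant human ERBB2 in place of IL-3, plated at 3000 per well.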

BT-474 = test: Cell viability assay (CellTiter Glo), BT-474; assay type: cell-based; settings: Homo sapiens, read-out: IC50, cell viability, BT-474
A431 = test: Cell viability assay (CellTiter Glo), A431; assay type: cell-based; settings: Homo sapiens, A-431, A431 cells, 72 hours
MDA-MB-175VII = test: Cell viability assay (CellTiter Glo), MDA-MB-175VII; assay type: cell-based; settings: Homo sapiens, MDA-MB-175-VII, 72 h, read-out: IC50, cell viability, MDA MB 175VII
Procedure: Cells were treated with compounds, and cell viability was measured as a metric of kinase inhibition.
The Ba/F3 cell line is IL-3-dependent mouse cell line derived from the C3H mouse strain. Ba/F3 cell lines were engineered to express human ERBB2 or EGFR kinases, rendering the cells IL-3 independent. The lines were generated via retroviral transduction utilizing a Moloney murine leukemia virus (MMLV) promoter, and constructs are stably integrated into the cell genome. The sequences of the ERBB2 and EGFR genes used were NCBI Reference Sequences NM_004448.3 and NM_005228.3, respectively.
Similarly, Ba/F3 cell lines engineered to express EGFR, ERBB2, or ERBB2 mutants were grown, harvested, counted and seeded at 3000 cells per well in 96-well plates. A subset of wells contained media only (low control, “LC”).
Table B1 provides the growth media and number of cells seeded per well for the each cell line.
Plates were placed in a 37° C., 5% CO2 incubator for 72 hours. Plates were then removed from the incubator and equilibrated for 15 minutes at room temperature. 40 μl of CellTiter Glo reagent (Promega) was added to measure the relative level of metabolically active cells by quantifying intracellular ATP concentrations. Plates were incubated for 30 minutes at room temperature, and luminescence was measured. Percent viability was normalized to a vehicle control only using the following formula: % viability=100×(Lumsample−LumLC)/(LumHC−Lum^LC). Graphical curves were fitted using a nonlinear regression model with a sigmoidal dose response.

[2] = biological target: T1, phosphorylated EGFR (pEGFR) (Homo sapiens, UniProt P00533); test: Detection of phosphorylated EGFR (pEGFR) in EGF-stimulated A431 cells; assay type: cell-based; settings: A431 cells (10% FBS), 4 hours incubation, EGF 30 ng/mL 10 minutes, AlphaLISA
T1 construct: performed to measure phosphorylated EGFR levels using A431 cells (10% FBS); endogenous in cells; host or cells: A431
T1 sequence (P00533 25-1210): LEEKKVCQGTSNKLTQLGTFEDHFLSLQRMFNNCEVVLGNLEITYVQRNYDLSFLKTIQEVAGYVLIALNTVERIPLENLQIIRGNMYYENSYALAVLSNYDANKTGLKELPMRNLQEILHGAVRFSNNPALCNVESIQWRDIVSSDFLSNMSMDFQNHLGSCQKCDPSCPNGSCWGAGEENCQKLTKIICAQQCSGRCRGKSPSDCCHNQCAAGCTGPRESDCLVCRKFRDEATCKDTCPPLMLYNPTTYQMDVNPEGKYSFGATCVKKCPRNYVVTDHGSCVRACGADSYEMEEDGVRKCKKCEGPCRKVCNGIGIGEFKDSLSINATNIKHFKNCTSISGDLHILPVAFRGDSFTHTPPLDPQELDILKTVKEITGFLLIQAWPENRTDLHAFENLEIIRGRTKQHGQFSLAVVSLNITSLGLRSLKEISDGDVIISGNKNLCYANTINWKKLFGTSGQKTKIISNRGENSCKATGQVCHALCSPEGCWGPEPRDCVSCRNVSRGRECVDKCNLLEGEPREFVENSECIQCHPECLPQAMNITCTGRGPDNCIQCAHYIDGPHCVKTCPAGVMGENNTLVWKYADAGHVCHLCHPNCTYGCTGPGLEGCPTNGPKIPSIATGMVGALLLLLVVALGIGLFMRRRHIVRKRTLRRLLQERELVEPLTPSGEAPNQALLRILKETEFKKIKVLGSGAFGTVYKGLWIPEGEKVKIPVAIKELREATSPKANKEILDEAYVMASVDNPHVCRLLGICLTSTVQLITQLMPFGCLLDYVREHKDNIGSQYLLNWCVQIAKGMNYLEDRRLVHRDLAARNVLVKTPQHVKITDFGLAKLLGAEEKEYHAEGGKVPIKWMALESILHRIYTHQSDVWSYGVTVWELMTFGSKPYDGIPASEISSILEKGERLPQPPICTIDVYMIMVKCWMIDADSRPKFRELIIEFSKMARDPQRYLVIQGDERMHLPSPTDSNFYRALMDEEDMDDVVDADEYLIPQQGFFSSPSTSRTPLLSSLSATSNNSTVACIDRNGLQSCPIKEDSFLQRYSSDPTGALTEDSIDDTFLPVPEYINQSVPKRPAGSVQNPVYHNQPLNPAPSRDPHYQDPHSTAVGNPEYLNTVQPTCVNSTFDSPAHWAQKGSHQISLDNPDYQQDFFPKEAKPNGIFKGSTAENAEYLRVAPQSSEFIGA
Outline: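 AlphaLISA read-out of EGFR phosphorylation after a 10-min EGF pulse (30 ng/mL final). A431 cells (10% FBS) had been exposed to compound for 4 h at 37 °C. IC50 was fitted from % inhibition normalised to DMSO and staurosporine control lysates.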

[3] = biological target: T2, phosphorylated ERBB2 (pERBB2) (Homo sapiens, UniProt P04626); test: Detection of phosphorylated ERBB2 (pERBB2) by ELISA in BT-474 cells; assay type: cell-based; settings: four hours incubation
T2 construct: endogenous in cells; host or cells: BT-474
T2 sequence (P04626 23-1255): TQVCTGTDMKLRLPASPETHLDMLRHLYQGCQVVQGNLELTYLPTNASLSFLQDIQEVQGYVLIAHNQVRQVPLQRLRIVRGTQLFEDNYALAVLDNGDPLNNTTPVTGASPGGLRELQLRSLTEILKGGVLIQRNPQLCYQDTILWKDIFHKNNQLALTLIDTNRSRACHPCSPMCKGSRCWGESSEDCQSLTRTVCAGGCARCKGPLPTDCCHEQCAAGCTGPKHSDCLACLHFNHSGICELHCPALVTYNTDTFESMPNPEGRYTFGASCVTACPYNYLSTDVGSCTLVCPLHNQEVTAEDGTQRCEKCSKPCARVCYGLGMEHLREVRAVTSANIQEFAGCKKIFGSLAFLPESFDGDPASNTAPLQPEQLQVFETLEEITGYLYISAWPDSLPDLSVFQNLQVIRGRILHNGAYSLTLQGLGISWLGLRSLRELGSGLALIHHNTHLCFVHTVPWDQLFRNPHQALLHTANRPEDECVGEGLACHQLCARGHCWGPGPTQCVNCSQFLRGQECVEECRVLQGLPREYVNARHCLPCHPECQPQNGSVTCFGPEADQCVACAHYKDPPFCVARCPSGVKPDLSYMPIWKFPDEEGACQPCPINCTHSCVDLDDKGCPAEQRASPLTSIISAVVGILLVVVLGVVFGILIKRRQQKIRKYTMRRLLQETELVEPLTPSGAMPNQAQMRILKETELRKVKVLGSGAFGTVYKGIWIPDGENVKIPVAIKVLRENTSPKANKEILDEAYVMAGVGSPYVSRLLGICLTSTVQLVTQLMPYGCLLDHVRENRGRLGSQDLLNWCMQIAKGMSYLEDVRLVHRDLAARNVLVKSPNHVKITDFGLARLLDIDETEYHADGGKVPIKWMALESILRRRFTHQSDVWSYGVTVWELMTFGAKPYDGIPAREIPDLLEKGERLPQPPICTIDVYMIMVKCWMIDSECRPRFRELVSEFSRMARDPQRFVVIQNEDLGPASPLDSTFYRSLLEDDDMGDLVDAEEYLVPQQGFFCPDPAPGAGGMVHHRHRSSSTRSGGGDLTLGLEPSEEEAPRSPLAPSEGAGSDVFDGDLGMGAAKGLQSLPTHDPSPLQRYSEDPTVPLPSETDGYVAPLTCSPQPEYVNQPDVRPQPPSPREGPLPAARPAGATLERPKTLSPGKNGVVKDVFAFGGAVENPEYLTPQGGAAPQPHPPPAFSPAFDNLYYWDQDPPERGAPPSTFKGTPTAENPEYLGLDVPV
Outline: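 Phospho-ERBB2 in lysates was quantified by sandwich ELISA (A450, TMB) after 4 h compound exposure at 37 °C of BT-474 cells seeded at 2.0×10^4 per well. Compounds tested at 10 µM to 0.01 nM final in four-fold steps; activity normalized to DMSO (0.1%) high and cell-free low controls.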

[4] = Ba/F3 ERBB2 A775_G776insYVMA cells, Tables B2-B4, read-out: IC50, cell viability, Ba/F3 ERBB2 A775_G776insYVMA
[5] = BT-474 cells, 72 hours, CellTiter Glo
[6] = Ba/F3 ERBB2 YVMA cells, cell viability, Table B5, read-out: Ba/F3 ERBB2 YVMA, IC50

Ba/F3 ERBB2 A775_G776insYVMA, sequence (P04626 with tags, fused parts or gaps DUP772-775): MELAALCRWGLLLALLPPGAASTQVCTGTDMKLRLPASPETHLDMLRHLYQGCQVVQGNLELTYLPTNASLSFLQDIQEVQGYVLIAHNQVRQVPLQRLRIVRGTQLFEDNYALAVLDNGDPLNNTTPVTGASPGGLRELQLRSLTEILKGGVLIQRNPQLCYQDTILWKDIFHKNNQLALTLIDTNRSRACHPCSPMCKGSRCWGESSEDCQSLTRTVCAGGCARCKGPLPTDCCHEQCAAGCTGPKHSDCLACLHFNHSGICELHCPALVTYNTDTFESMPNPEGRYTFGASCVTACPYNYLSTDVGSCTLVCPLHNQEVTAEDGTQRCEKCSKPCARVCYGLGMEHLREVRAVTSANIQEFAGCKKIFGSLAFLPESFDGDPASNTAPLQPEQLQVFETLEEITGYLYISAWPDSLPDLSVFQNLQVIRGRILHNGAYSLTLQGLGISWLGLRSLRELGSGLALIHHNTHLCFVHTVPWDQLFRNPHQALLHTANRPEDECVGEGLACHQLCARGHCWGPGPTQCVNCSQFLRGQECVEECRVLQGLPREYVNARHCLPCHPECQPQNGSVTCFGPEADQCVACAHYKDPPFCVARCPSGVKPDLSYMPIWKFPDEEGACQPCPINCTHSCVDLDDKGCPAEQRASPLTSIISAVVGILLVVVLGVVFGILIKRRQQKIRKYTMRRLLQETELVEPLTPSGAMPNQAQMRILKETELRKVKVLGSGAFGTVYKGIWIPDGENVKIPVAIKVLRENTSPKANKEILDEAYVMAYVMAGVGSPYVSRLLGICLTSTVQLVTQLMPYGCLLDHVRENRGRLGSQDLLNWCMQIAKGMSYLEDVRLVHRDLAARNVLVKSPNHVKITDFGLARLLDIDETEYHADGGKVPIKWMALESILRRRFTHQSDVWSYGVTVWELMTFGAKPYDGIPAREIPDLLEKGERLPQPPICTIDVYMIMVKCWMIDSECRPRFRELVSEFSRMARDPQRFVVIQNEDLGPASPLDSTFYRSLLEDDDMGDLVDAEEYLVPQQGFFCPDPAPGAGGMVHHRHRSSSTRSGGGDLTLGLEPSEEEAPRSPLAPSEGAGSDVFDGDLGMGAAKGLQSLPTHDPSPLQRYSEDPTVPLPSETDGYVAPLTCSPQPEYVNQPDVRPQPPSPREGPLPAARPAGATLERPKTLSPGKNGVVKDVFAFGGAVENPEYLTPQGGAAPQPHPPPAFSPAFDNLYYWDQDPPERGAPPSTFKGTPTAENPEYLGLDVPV

Row | IC50 (BT-474; [5]) [nM] | IC50 (A431) [nM] | IC50 [2] [nM] | IC50 [3] [nM] | Structure (SMILES) | GI50 [1, 4] [nM] | IC50 (MDA-MB-175VII) [nM] | IC50 (BT-474; BT-474, 72 h) [nM] | GI50 [1, 6] [nM]
1 | 27.1 | 673 | – | – | C=C1CCN(c2ccc3ncnc(Nc4ccc(Oc5ccn6ncnc6c5)c(Cl)c4)c3c2)C1=O [Compound 10, 1-[4-[(3-chloro-4-[[1,2,4]triazolo[1,5-a]pyridin-7-yloxy]phenyl)amino]quinazolin-6-yl]-3-methylidenepyrrolidin-2-one] | – | – | – | –
2 | 19.5 | – | > 10000 | 75.9 | C=C1C(=O)N(c2ccc3ncnc(Nc4ccc(Oc5ccn6ncnc6c5)c(C)c4)c3c2)CC12CC2 [Compound 2, 5-[4-[(3-methyl-4-[[1,2,4]triazolo[1,5-a]pyridin-7-yloxy]phenyl)amino]quinazolin-6-yl]-7-methylidene-5-azaspiro[2.4]heptan-6-one] | – | – | – | –
3 | 3.27 | – | 1250 | 8.15 | C=C1CCN(c2ccc3ncnc(Nc4cc(C)c(Oc5ccn6ncnc6c5)cc4F)c3c2)C1=O [Compound 15, 1-[4 [(2-fluoro-5-methyl-4-[[1,2,4]triazolo[1,5-a]pyridin-7-yloxy]phenyl)amino]quinazolin-6-yl]-3-methylidenepyrrolidin-2-one] | 245 | – | – | –
4 | 31.7 | > 10000 | – | 109 | C=C1CCN(c2ccc3ncnc(Nc4ccc(Oc5ccn6ncnc6c5)c(C)c4)c3c2F)C1=O [Compound 7, 1-[5-fluoro-4-[(3-methyl-4-[[1,2,4]triazolo[1,5-a]pyridin-7-yloxy]phenyl)amino]quinazolin-6-yl]-3-methylidenepyrrolidin-2-one] | > 1000 | – | – | –
5 | 4.32 | – | 3800 | 26.9 | C=C1CCN(c2ccc3ncnc(Nc4ccc(Oc5ccn6ncnc6c5)c(C)c4F)c3c2)C1=O [Compound 14, 1-[4-[(2-fluoro-3-methyl-4-[[1,2,4]triazolo[1,5-a]pyridin-7-yloxy]phenyl)amino]quinazolin-6-yl]-3-methylidenepyrrolidin-2-one] | – | – | – | –
6 | 44.7 | > 10000 | – | – | C=C1CCN(c2ccc3ncnc(Nc4ccc(Cc5ccn6ncnc6c5)cc4)c3c2)C1=O [Compound 9, 3-methylidene-1-[4-[(4-[[1,2,4]triazolo[1,5-a]pyridin-7-ylmethyl]phenyl)amino]quinazolin-6-yl]pyrrolidin-2-one] | – | – | – | –
7 | 4.67 | – | 235 | 9.15 | C=C1CCN(c2ccc3ncnc(Nc4ccc(Cc5ccn6ncnc6c5)c(C)c4)c3c2)C1=O [Compound 16, 1-[4-[(3-methyl-4-[[1,2,4]triazolo[1,5-a]pyridin-7-ylmethyl]phenyl)amino]quinazolin-6-yl]-3-methylidenepyrrolidin-2-one] | 169 | – | – | –
8 | 3.73 | – | > 9640 | 7.52 | Cc1cc(Nc2ncnc3ccc(N4CC/C(=C\CN(C)C)C4=O)cc23)ccc1Oc1ccn2ncnc2c1 [Compound 18, (E)-1-(4-(4-([1,2,4]triazolo[1,5-a]pyridin-7-yloxy)-3-methylphenylamino)quinazolin-6-yl)-3-(2-(dimethylamino)ethylidene)pyrrolidin-2-one hydrochloride] | 77.1 | – | – | –
9 | 7670 | 6510 | – | – | C=C1CCN(c2ccc3ncnc(Nc4ccc(Oc5ccn6ncnc6c5)c(F)c4)c3c2)C1=O [Compound 11, 1-[4-[(3-fluoro-4-[[1,2,4]triazolo[1,5-a]pyridin-7-yloxy]phenyl)amino]quinazolin-6-yl]-3-methylidenepyrrolidin-2-one] | – | – | – | –

Continued, compound first:

Row | Structure (SMILES) | IC50 (BT-474; [5]) [nM] | IC50 (A431) [nM] | IC50 [2] [nM] | IC50 [3] [nM] | GI50 [1, 4] [nM] | IC50 (MDA-MB-175VII) [nM] | IC50 (BT-474; BT-474, 72 h) [nM] | GI50 [1, 6] [nM]
10 | C=C1CCN(c2ccc3ncnc(Nc4ccc(Oc5cnc(C)cn5)c(C)c4)c3c2)C1=O [Compound 6, 1-[4-([3-methyl-4-[(5-methylpyrazin-2-yl)oxy]phenyl]amino)quinazolin-6-yl]-3-methylidenepyrrolidin-2-one] | 16.1 | > 6520 | – | – | > 1000 | – | – | –
11 | CCOc1cc2ncc(C#N)c(Nc3ccc(OCc4ccccn4)c(Cl)c3)c2cc1NC(=O)/C=C/CN(C)C [Neratinib, neratinib, reference compound] | – | – | – | – | – | 7.1 | 2.2 | –
12 | C=C1CCN(c2ccc3ncnc(Nc4ccc(Oc5ccn(C)c(=O)c5)c(C)c4)c3c2)C1=O [Compound 5, 1-methyl-4-(2-methyl-4-[[6-(3-methylidene-2-oxopyrrolidin-1-yl)quinazolin-4-yl]amino]phenoxy)pyridin-2-one] | 27.8 | > 10000 | – | – | 236 | – | – | –
13 | C=C1CCN(c2ccc3ncnc(Nc4ccc(Oc5ccn(C(F)F)c(=O)c5)c(C)c4)c3c2)C1=O [Compound 12, 1-(difluoromethyl)-4-(2-methyl-4-[[6-(3-methylidene-2-oxopyrrolidin-1-yl)quinazolin-4-yl]amino]phenoxy)pyridin-2-one] | 20.4 | 7650 | – | – | 113 | – | – | –
14 | C=C1CCN(c2ccc3ncnc(Nc4ccc(Cc5ccc(C)nc5)cc4)c3c2)C1=O [Compound 8, 3-methylidene-1-[4-([4-[(6-methylpyridin-3-yl)methyl]phenyl]amino)quinazolin-6-yl]pyrrolidin-2-one] | 52.9 | 7500 | – | – | – | – | – | –
15 | Cc1cc(Nc2ncnc3ccc(N4CC/C(=C\CCN(C)C)C4=O)nc23)ccc1Oc1ccn2ncnc2c1 [Compound 48, (3E)-3-[3-(dimethylamino)propylidene]-1-{4-[(3-methyl-4-{[1,2,4]triazolo[1,5-a]pyridin-7-yloxy}phenyl)amino]pyrido[3,2-d]pyrimidin-6-yl}pyrrolidin-2-one] | – | – | 63.5 | 12.4 | – | – | – | 0.837
16 | Cc1cc(Nc2ncnc3ccc(N4CC/C(=C\CN(C)C)C4=O)nc23)ccc1Oc1ccc2ocnc2c1 [Compound 66, (E)-1-(4-((4-(benzo[d]oxazol-5-yloxy)-3-methylphenyl)amino)pyrido[3,2-d]pyrimidin-6-yl)-3-(2-(dimethylamino)ethylidene)pyrrolidin-2-one] | – | – | 93.6 | 34.2 | – | – | – | 1.95

From patent US20240116921A1, “LACTAM (HETERO)[…] DERIVATIVES AS INHIBITORS OF ERBB2” (EnLiven Therapeutics, Inc., priority 2020, published 2024)
